This is an account of results in patent US9744164B2, “Neuroprotective polyphenol analogs” (Salk Institute for Biological Studies, priority 2011, dated 2017).

Each structure is given as a SMILES string.

One assay has as its system Nrf2. Description: Nrf2 induction, SDS-PAGE and Western blotting of nuclear extracts. The assay is classed as cell-based. The note with it: cells treated 1, 2 and 4 hr at most protective concentration. On the procedure:
SDS-PAGE and immunoblotting. For immunoblotting of Nrf2, nuclear extracts were prepared as described (Schreiber, et al., Nucleic Acids Res. (1989) 17 (15), 6419) from untreated cells and cells treated with the Fisetin derivatives for 1, 2 and 4 hr. Fisetin was used as a positive control. […] Protein concentrations were determined using the BCA protein assay (Pierce). Equal amounts of protein were solubilized in 2.5× SDS-sample buffer, separated on 10% SDS-polyacrylamide gels and transferred to nitrocellulose. Equal loading and transfer of the samples was confirmed by staining the nitrocellulose with Ponceau-S. Transfers were blocked for 1 hr at room temperature with 5% nonfat milk in TBS/0.1% Tween 20 and then incubated overnight at 4° C. in the primary antibody diluted in 5% BSA in TBS/0.05% Tween 20. The primary antibodies used were: anti-Nrf2 (#SC13032; 1/1000) from Santa Cruz Biotechnology (Santa Cruz, Calif.) and anti-β-actin (#5125; 1/20,000) from Cell Signaling (Beverly, Mass.). The transfers were rinsed with TB S/0.05% Tween 20 and incubated for 1 hr at room temperature in horseradish peroxidase-goat anti-rabbit or goat anti-mouse (Biorad, Hercules, Calif.) diluted 1/5000 in 5% nonfat milk in TBS/0.1% Tween 20. The immunoblots were developed with the Super Signal reagent (Pierce, Rockford, Ill.).
The transcription factor Nrf2 plays a key role in regulating GSH metabolism in many different cell types (Lewerenz, et al., Antioxidant & Redox Signaling. (2011) 14, 1449-1465). We have shown that Fisetin can induce Nrf2 and this correlates with its ability to enhance GSH levels (Maher, P. et al., Genes. Nutr. (2009) Sep. 10). To determine if the derivatives which can maintain GSH levels do so by increasing Nrf2 we looked at Nrf2 levels in the nuclei of derivative-treated cells using Fisetin as a positive control (Table 4). […] This was particularly true for the derivatives based on the quinoline scaffold where none of them increased Nrf2 despite being very effective at maintaining GSH levels.
The ability of the derivatives that maintain GSH levels to induce the transcription factor Nrf2 was assayed by SDS-PAGE and Western blotting of nuclear extracts of untreated and derivative-treated cells. Fisetin treatment was used as a positive control.

The next assay deals with N9 microglial cells. Description: anti-inflammatory assay, LPS-induced microglial activation (NO release). The format is cell-based, mouse. The note with it: bacterial lipopolysaccharide, derivative 1-10 μM, 24 hr. In short, it runs like this:
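Mouse N9 microglia in DME/7.5% DFCS stimulated with 10 μg/ml LPS alone or with derivatives (1-10 μM) for 24 hr. NO in cleared medium measured by Griess reagent, 10 min at room temperature, absorbance at 550 nm. Fisetin (10 μM) as positive control.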

As for `COc1cc(-c2ccc(O)c(O)c2)nc2ccccc12` [CMS-007, 4-methoxy-2-(3,4-dihydroxyphenyl)quinoline], in the assay on Nrf2, the “Nrf2 (induction of transcription factor Nrf2)” value (shortened to “Nrf2”) is recorded as “No”. Also, the “microglia (anti-inflammatory activity)” value in the assay on N9 microglial cells was 85%.
Regarding `Oc1ccc(-c2cc(OC3CCCC3)c3ccccc3n2)cc1O` [CMS-121, 4-cyclopentyloxy-2-(3,4-dihydroxyphenyl)quinoline], the “Nrf2” value in the assay with Nrf2 is given as “No”. Besides, in the assay with N9 microglial cells, the “microglia (anti-inflammatory activity)” value came to 82%.
As for `O=c1c(O)c(-c2ccc(O)c(O)c2)oc2cc(O)ccc12` [Fisetin, 3,7,3′,4′-tetrahydroxy flavone], the “Nrf2” value in the assay on Nrf2 is listed as “Yes”. In addition, the “microglia (anti-inflammatory activity)” value in the assay with N9 microglial cells stood at 80%.
The like results for `COc1ccc(/C=C/C(=O)c2cc(C)c(C)cc2O)cc1OCc1ccccc1` [CMS-086, (E)-3-(3-(benzyloxy)-4-methoxyphenyl)-1-(2-hydroxy-4,5-dimethylphenyl)prop-2-en-1-one] were, in that order, “Yes” and 70%.
On the same counts, the results for `CCOc1cc(-c2ccc(O)c(O)c2)nc2ccccc12` [CMS-023, 4-ethoxy-2-(3,4-dihydroxyphenyl)quinoline] are “No” and 90%.
Regarding `CC(C)Oc1cc(-c2ccc(O)c(O)c2)nc2ccccc12` [CMS-024, 4-isopropoxy-2-(3,4-dihydroxyphenyl)quinoline], the “Nrf2” value in the assay on Nrf2 was “No”. In the assay on N9 microglial cells, the “microglia (anti-inflammatory activity)” value is recorded as 80%.
In the case of `O=c1c(O)c(-c2ccc(O)c(O)c2)oc2ccccc12` [CMS-04P, reference compound], in the assay with Nrf2, the “Nrf2” value is on record as “Yes”. In the assay with N9 microglial cells, the “microglia (anti-inflammatory activity)” value is 80%.
As for `O=c1c(O)c(-c2ccc(N3CCCC3)c(O)c2)oc2c1ccc1ccccc12` [CMS-140, 3-hydroxy-2-(3-hydroxy-4-(pyrrolidin-1-yl)phenyl)-4H-benzo[h]chromen-4-one], in the assay with Nrf2, the “Nrf2” value is listed as “No”. In the assay on N9 microglial cells, the “microglia (anti-inflammatory activity)” value stood at 50%.
